Structures can show the parent of a compound that is named as a salt.
Molecular target: T1, Human α-thrombin (Homo sapiens, UniProt P00734)
T1 construct: Human α-thrombin; purchased Sigma Chemical Co. or Hematologic Technologies
Experiment: Test A: Determination of Thrombin Inhibition with a Chromogenic, Robotic Assay
Type: biochemical
Settings: chromogenic substrate S-2366 0.30 mmol/L, α-thrombin 0.020 NIHU/mL, 40 minutes incubation at 37° C.
Procedure: Determination of Thrombin Inhibition with a Chromogenic, Robotic Assay
The thrombin inhibitor potency is measured with a chromogenic substrate method, in a Plato 3300 robotic microplate processor (Rosys AG, CH-8634 Hombrechtikon, Switzerland), using 96-well, half volume microtitre plates (Costar, Cambridge, Mass., USA; Cat No 3690). Stock solutions of test substance in DMSO (72 μL), 0.1-1 mmol/L, are diluted serially 1:3 (24+48 μL) with DMSO to obtain ten different concentrations, which are analysed as samples in the assay. 2 μL of test sample is diluted with 124 μL assay buffer, 12 μL of chromogenic substrate solution (S-2366, Chromogenix, Mölndal, Sweden) in assay buffer and finally 12 μL of α-thrombin solution (Human α-thrombin, Sigma Chemical Co. or Hematologic Technologies) in assay buffer, are added, and the samples mixed. The final assay concentrations are: test substance 0.00068-133 μmol/L, S-2366 0.30 mmol/L, α-thrombin 0.020 NIHU/mL. The linear absorbance increment during 40 minutes incubation at 37° C. is used for calculation of percentage inhibition for the test samples, as compared to blanks without inhibitor.

Compound: NC(C(=O)N1C[C@@H]2C[C@@H]2[C@H]1C(=O)NCc1cc(Cl)ccc1-n1cnnn1)c1ccccc1F (stereo partly drawn) [Example 74, (1S,2S,5R)-3-[2-Amino-2-(2-fluoro-phenyl)-acetyl]-3-aza-bicyclo[3.1.0]hexane-2-carboxylic acid 5-chloro-2-tetrazol-1-yl-benzylamide]
- IC50: 29 nM

Compound: CC(C)(C1CC1)C(O)C(=O)N1C[C@H]2C[C@H]2[C@H]1C(=O)NCc1cc(Cl)ccc1-n1cnnn1 (stereo partly drawn) [Example 61, (1R,2S,5S)-3-(3-Cyclopropyl-2-hydroxy-3-methyl-butyryl)-3-aza-bicyclo[3.1.0]hexane-2-carboxylic acid 5-chloro-2-tetrazol-1-yl-benzylamide]
- IC50: 15 nM

Compound: O=C([C@H](O)CCc1ccccc1)N1CC2CC1(C(=O)NCc1cc(Cl)ccc1-n1cnnn1)C2 [Example 65, 2-((R)-2-Hydroxy-4-phenyl-butyryl)-2-aza-bicyclo[2.1.1]hexane-1-carboxylic acid 5-chloro-2-tetrazol-1-yl-benzylamide]
- IC50: 170 nM

Compound: O=C(NCc1cc(Cl)ccc1-n1cnnn1)[C@@H]1C[C@@H]2C[C@@H]2N1C(=O)C(O)Cn1cncn1 (stereo partly drawn) [Example 51]
- IC50: 420 nM

Compound: O=C(NCc1cc(Cl)ccc1-n1cnnn1)[C@@H]1[C@H]2C[C@H]2CN1C(=O)[C@H](O)c1cccc(Cl)c1 [Example 57, (1S,2S,5R)-3-[(R)-2-(3-Chloro-phenyl)-2-hydroxy-acetyl]-3-aza-bicyclo[3.1.0]hexane-2-carboxylic acid 5-chloro-2-tetrazol-1-yl-benzylamide]
- IC50: 3 nM

Compound: CC(C)(C)OC[C@@H](O)C(=O)N1CC2CC1(C(=O)NCc1cc(Cl)ccc1-n1cnnn1)C2 [Example 66, 2-((R)-3-tert-Butoxy-2-hydroxy-propionyl)-2-aza-bicyclo[2.1.1]hexane-1-carboxylic acid 5-chloro-2-tetrazol-1-yl-benzylamide]
- IC50: 67 nM

Compound: N[C@H](CO)C(=O)N1[C@H](C(=O)NCc2cc(Cl)ccc2-n2cnnn2)C[C@@H]2C[C@@H]21 [Example 49, (1S,3S,5S)-2-((R)-2-Amino-3-hydroxy-propionyl)-2-aza-bicyclo[3.1.0]hexane-3-carboxylic acid 5-chloro-2-tetrazol-1-yl-benzylamide hydrochloride]
- IC50: 450 nM

Compound: (1S,3S,5S)-2-(4-Hydroxy-1-benzopyran-4-carbonyl)-2-aza-bicyclo[3.1.0]hexane-3-carboxylic acid 5-chloro-2-tetrazol-1-yl-benzylamide [Example 63]
- IC50: 41 nM

Compound: O=C(NCc1cc(Cl)ccc1-n1cnnn1)[C@@H]1[C@H]2C[C@H]2CN1C(=O)C(O)Cn1cncn1 (stereo partly drawn) [Example 52, (1S,2S,5R)-3-(2-Hydroxy-3-1,2,4-triazol-1-yl-propionyl)-3-aza-bicyclo[3.1.0]hexane-2-carboxylic acid 5-chloro-2-tetrazol-1-yl-benzylamide]
- IC50: 570 nM

Compound: N[C@@H](C(=O)N1[C@H](C(=O)NCc2cc(Cl)ccc2-n2cnnn2)C[C@@H]2C[C@@H]21)c1ccccc1 [Example 43, (1S,3S,5S)-2-((R)-2-Amino-2-phenyl-acetyl)-2-aza-bicyclo[3.1.0]hexane-3-carboxylic acid 5-chloro-2-tetrazol-1-yl-benzylamide]
- IC50: 5 nM

Compound: O=C(NCc1cc(Cl)ccc1-n1cnnn1)[C@@H]1[C@H]2C[C@H]2CN1C(=O)[C@H]1COCCN1 [Example 75, (1S,2S,5R)-3-((R)-Morpholine-3-carbonyl)-3-aza-bicyclo[3.1.0]hexane-2-carboxylic acid 5-chloro-2-tetrazol-1-yl-benzylamide acetate]
- IC50: 650 nM

Compound: CC(C)(C)OC[C@@H](N)C(=O)N1[C@H](C(=O)NCc2cc(Cl)ccc2-n2cnnn2)C[C@@H]2C[C@@H]21 [Example 53, (1S,3S,5S)-2-((R)-2-Amino-3-tert-butoxy-propionyl)-2-aza-bicyclo[3.1.0]hexane-3-carboxylic acid 5-chloro-2-tetrazol-1-yl-benzylamide acetate]
- IC50: 5 nM

Compound: CC(C)(C)C[C@@H](O)C(=O)N1CC2CC1(C(=O)NCc1cc(Cl)ccc1-n1cnnn1)C2 [Example 28, 2-((R)-2-Hydroxy-4,4-dimethyl-pentanoyl)-2-aza-bicyclo[2.1.1]hexane-1-carboxylic acid 5-chloro-2-tetrazol-1-yl-benzylamide]
- IC50: 6 nM

Compound: N[C@H](CO)C(=O)N1[C@@H]2C[C@@H]2C[C@H]1C(=O)NCc1cc(Cl)ccc1-n1cnnn1 [Example 50, (1R,3S,5R)-2-((R)-2-Amino-3-hydroxy-propionyl)-2-aza-bicyclo[3.1.0]hexane-3-carboxylic acid 5-chloro-2-tetrazol-1-yl-benzylamide hydrochloride]
- IC50: 2500 nM

Compound: O=C([C@H](O)Cc1ccccc1)N1CC2CC1(C(=O)NCc1cc(Cl)ccc1-n1cnnn1)C2 [Example 29, 2-((R)-2-Hydroxy-3-phenyl-propionyl)-2-aza-bicyclo[2.1.1]hexane-1-carboxylic acid 5-chloro-2-tetrazol-1-yl-benzylamide]
- IC50: 290 nM

Compound: NC(C(=O)N1[C@H](C(=O)NCc2cc(Cl)ccc2-n2cnnn2)C[C@@H]2C[C@@H]21)C1CCS(=O)(=O)CC1 (stereo partly drawn) [Example 72, (1S,3S,5S)-2-[2-Amino-2-(1,1-dioxo-hexahydro-1λ^6-thiopyran-4-yl)-acetyl]-2-aza-bicyclo[3.1.0]hexane-3-carboxylic acid 5-chloro-2-tetrazol-1-yl-benzylamide]
- IC50: 240 nM

Compound: CC(C)(C)C[C@@H](N)C(=O)N1[C@@H]2C[C@@H]2C[C@H]1C(=O)NCc1cc(Cl)ccc1-n1cnnn1 [Example 19, (1R,3S,5R)-2-((R)-2-Amino-4,4-dimethyl-pentanoyl)-2-aza-bicyclo[3.1.0]hexane-3-carboxylic acid 5-chloro-2-tetrazol-1-yl-benzylamide hydrochloride]
- IC50: 4 nM

Compound: NC(C(=O)N1[C@H](C(=O)NCc2cc(Cl)ccc2-n2cnnn2)C[C@@H]2C[C@@H]21)c1ccccc1F (stereo partly drawn) [Example 73, (1S,3S,5S)-2-[2-Amino-2-(2-fluoro-phenyl)-acetyl]-2-aza-bicyclo[3.1.0]hexane-3-carboxylic acid 5-chloro-2-tetrazol-1-yl-benzylamide]
- IC50: 8 nM

Compound: N[C@H](CC1CCCCC1)C(=O)N1CC2CC1(C(=O)NCc1cc(Cl)ccc1-n1cnnn1)C2 [Example 68, 2-((R)-2-Amino-3-cyclohexyl-propionyl)-2-aza-bicyclo[2.1.1]hexane-1-carboxylic acid 5-chloro-2-tetrazol-1-yl-benzylamide hydrochloride]
- IC50: 4 nM

Compound: O=C(NCc1cc(Cl)ccc1-n1cnnn1)[C@@H]1C[C@@H]2C[C@@H]2N1C(=O)[C@H](O)c1cc(Cl)cc(OC(F)F)c1 [Example 37, (1S,3S,5S)-2-[(R)-2-(3-Chloro-5-difluoromethoxy-phenyl)-2-hydroxy-acetyl]-2-aza-bicyclo[3.1.0]hexane-3-carboxylic acid 5-chloro-2-tetrazol-1-yl-benzylamide]
- IC50: 4 nM

Compound: O=C([C@H](O)C1CCCCC1)N1CC2CC1(C(=O)NCc1cc(Cl)ccc1-n1cnnn1)C2 [Example 67, 2-((R)-2-Cyclohexyl-2-hydroxy-acetyl)-2-aza-bicyclo[2.1.1]hexane-1-carboxylic acid 5-chloro-2-tetrazol-1-yl-benzylamide]
- IC50: 85 nM

Compound: O=C(NCc1cc(Cl)ccc1-n1cnnn1)[C@@H]1[C@H]2C[C@H]2CN1C(=O)[C@H](O)c1cc(Cl)cc(OC(F)F)c1 [Example 36, (1S,2S,5R)-3-[2-((R)-3-Chloro-5-difluoromethoxy-phenyl)-2-hydroxy-acetyl]-3-aza-bicyclo[3.1.0]hexane-2-carboxylic acid 5-chloro-2-tetrazol-1-yl-benzylamide]
- IC50: 9 nM

Compound: O=C(NCc1cc(Cl)ccc1-n1cncn1)[C@@H]1C[C@@H]2C[C@@H]2N1C(=O)C(O)Cn1cncn1 (stereo partly drawn) [Example 69, (1S,3S,5S)-2-(2-Hydroxy-3-1,2,4-triazol-1-yl-propionyl)-2-aza-bicyclo[3.1.0]hexane-3-carboxylic acid 5-chloro-2-1,2,4-triazol-1-yl-benzylamide]
- IC50: 780 nM

Compound: N[C@@H](C(=O)N1[C@H](C(=O)NCc2cc(Cl)ccc2-n2cnnn2)C[C@@H]2C[C@@H]21)c1cccc(Cl)c1 [Example 71, (1S,3S,5S)-2-[(R)-2-Amino-2-(3-chloro-phenyl)-acetyl]-2-aza-bicyclo[3.1.0]hexane-3-carboxylic acid 5-chloro-2-tetrazol-1-yl-benzylamide]
- IC50: 5 nM

Compound: O=C([C@H](O)c1ccccc1)N1CC2CC1(C(=O)NCc1cc(Cl)ccc1-n1cnnn1)C2 [Example 30, 2-((R)-2-Hydroxy-2-phenyl-acetyl)-2-aza-bicyclo[2.1.1]hexane-1-carboxylic acid 5-chloro-2-tetrazol-1-yl-benzylamide]
- IC50: 47 nM

Compound: CC(C)(C1CC1)C(O)C(=O)N1[C@@H]2C[C@@H]2C[C@H]1C(=O)NCc1cc(Cl)ccc1-n1cnnn1 (stereo partly drawn) [Example 60, (1R,3S,5R)-2-(3-Cyclopropyl-2-hydroxy-3-methyl-butyryl)-2-aza-bicyclo[3.1.0]hexane-3-carboxylic acid 5-chloro-2-tetrazol-1-yl-benzylamide]
- IC50: 14 nM

Compound: N[C@@H](C(=O)N1[C@H](C(=O)NCc2cc(Cl)ccc2-n2cnnn2)C[C@@H]2C[C@@H]21)c1ccc(O)cc1 [Example 48, (1S,3S,5S)-2-[(R)-2-Amino-2-(4-hydroxy-phenyl)-acetyl]-2-aza-bicyclo[3.1.0]hexane-3-carboxylic acid 5-chloro-2-tetrazol-1-yl-benzylamide hydrochloride]
- IC50: 22 nM
